Read-outs that look alike come from different tables or passages of the source.
Tests used:
OCI-AML-2 = test: Cell proliferation assay (MTS); assay type: cell-based, human
OCI-Ly10 = test: Cell proliferation assay (MTS); assay type: cell-based, human; details: Homo sapiens, OCI-Ly10, 48 h
LAL-CUN-2 = test: Cell proliferation assay (MTS); assay type: cell-based; details: Homo sapiens, 48 h
CEMO-1 = test: Cell proliferation assay (MTS); assay type: cell-based, human; details: 48 h
MV4-11 = test: Cell proliferation assay (MTS); assay type: cell-based; details: Homo sapiens
OCI-Ly3 = test: Cell proliferation assay (MTS); assay type: cell-based; details: Homo sapiens
G9a = molecular target: T1, G9a (Homo sapiens, UniProt Q96KQ7); test: G9a enzyme activity assay (TR-FRET); assay type: biochemical; details: for IC50: TR-FRET, internally determined
T1 sequence (Q96KQ7 1-1210): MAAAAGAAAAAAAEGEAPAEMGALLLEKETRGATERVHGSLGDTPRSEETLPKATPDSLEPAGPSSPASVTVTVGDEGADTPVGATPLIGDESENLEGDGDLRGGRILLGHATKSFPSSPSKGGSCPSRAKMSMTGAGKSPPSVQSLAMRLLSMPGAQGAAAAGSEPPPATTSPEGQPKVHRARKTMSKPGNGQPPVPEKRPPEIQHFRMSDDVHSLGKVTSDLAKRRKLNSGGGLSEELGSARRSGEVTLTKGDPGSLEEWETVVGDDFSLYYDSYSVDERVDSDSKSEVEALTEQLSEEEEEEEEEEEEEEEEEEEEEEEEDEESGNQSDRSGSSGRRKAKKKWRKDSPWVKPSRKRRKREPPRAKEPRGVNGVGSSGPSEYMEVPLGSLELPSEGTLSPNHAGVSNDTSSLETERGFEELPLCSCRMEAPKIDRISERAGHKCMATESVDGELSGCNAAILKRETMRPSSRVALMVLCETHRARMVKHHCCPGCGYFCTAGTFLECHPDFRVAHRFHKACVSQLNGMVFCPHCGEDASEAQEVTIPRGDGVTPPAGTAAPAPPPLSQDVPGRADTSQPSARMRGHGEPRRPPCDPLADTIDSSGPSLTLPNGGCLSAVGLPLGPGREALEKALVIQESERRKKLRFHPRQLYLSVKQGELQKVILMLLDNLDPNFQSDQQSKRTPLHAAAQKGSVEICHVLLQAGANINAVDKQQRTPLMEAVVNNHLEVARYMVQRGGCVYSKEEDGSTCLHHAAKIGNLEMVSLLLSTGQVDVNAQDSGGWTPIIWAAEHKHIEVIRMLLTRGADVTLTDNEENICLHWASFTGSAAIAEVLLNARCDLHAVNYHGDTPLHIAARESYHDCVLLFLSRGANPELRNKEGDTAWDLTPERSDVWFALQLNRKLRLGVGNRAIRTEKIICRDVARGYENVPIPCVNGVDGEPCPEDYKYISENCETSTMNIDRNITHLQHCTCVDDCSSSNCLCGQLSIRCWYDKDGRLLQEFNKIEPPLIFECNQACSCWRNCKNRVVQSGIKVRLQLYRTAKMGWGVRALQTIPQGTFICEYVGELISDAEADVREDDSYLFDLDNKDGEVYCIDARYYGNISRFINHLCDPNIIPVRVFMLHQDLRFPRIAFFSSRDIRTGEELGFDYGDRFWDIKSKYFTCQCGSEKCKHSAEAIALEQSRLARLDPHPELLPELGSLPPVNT

human DNMT1 enzyme = molecular target: T2, human DNMT1 enzyme (Homo sapiens, UniProt P26358); test: DNMT1 enzyme activity assay (TR-FRET); assay type: biochemical; details: internally determined
T2 construct: purchased

[1] = molecular target: T3, DNMT1 catalytic domain (501-1632) (Homo sapiens, UniProt P26358); test: SPR on immobilised DNMT1; assay type: binding
T3 construct: Flag (N); purchased
Text: We have indeed tried to measure the affinity of the reported compounds for DNMT1 using SPR. For that, we attempted SPR experiments using the two different DNMT1 protein constructs we can purchase: A full length DNMT1 with an N-terminal GST fusion, and a shorter construct containing the […]
First, we immobilized GST-tagged full length DNMT1 to a chip containing anti-GST antibody, but the amount immobilized was only 8% of the GST Ab chip capacity, and insufficient to detect binding of the ca. 500 Da compounds, presumably due to steric impediments resulting from the large size (dimer of 209 kDa monomers) of the GST-DNMT1 fusion protein. The theoretical SPR signal expected for the compounds binding with a 1:1 stoichiometry to the amount of protein immobilized (2300 RU) is only 5 response units (RU), with the precision of our BiacoreX100 SPR instrument typically being 1- […]
reference channels at 5 µM, indicating unspecific binding to the chip surface/Ab/GST, and very likely masking their possible direct binding to DNMT1. Compound injections at 200 µM […]
differential increase in the DNMT1 channel that indicates non-reversible binding with a high stoichiometry (responses of 81 and 65 RU, respectively; with 5 RU expected for a 1:1 binding), likely resulting from aggregation of the compounds at 200 µM concentration in the DNMT1 channel. […]
properly measured. […]

[2] = ABC-DLBCL, 48 h, read-out: GI50
[3] = Homo sapiens, OCI-AML2, AML, 48 h, read-out: GI50
[4] = Homo sapiens, ALL, read-out: GI50
[5] = Homo sapiens, CEMO-1, 48 h, as used in apoptosis assay, read-out: GI50
[6] = MV4-11, AML, 48 h, read-out: GI50
[7] = OCI-Ly3, ABC-DLBCL, 48 h, read-out: GI50

T3 sequence (P26358 485-1616): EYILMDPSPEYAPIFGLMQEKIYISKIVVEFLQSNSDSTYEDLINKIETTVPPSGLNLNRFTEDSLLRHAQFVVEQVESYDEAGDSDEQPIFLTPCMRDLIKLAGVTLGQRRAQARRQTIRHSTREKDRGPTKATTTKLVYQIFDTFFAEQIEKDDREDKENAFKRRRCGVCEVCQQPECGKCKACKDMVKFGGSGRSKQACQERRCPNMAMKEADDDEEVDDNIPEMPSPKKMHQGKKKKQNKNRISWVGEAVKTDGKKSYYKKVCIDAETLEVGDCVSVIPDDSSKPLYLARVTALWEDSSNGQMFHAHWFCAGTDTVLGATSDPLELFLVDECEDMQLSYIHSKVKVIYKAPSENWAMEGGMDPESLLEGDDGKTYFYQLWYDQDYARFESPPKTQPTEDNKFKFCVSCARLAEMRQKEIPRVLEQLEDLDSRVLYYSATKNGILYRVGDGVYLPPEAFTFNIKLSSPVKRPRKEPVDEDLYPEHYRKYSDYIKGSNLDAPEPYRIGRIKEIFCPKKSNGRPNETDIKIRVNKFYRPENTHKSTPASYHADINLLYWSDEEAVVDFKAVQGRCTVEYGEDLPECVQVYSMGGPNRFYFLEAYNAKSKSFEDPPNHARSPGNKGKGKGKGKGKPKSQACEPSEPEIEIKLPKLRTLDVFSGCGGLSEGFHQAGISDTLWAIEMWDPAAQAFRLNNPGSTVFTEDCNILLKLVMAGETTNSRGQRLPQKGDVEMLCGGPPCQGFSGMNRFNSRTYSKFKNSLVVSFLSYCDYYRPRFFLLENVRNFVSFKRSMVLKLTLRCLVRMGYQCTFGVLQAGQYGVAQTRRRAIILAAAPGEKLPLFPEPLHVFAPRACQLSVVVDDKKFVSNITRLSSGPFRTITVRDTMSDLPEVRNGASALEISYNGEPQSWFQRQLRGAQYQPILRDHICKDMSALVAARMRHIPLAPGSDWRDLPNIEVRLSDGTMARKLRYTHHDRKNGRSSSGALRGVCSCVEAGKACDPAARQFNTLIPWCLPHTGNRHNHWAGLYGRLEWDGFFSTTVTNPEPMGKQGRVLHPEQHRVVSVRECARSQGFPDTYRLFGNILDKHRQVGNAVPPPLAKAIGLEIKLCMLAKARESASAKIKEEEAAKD
T2 sequence (P26358 whole entry): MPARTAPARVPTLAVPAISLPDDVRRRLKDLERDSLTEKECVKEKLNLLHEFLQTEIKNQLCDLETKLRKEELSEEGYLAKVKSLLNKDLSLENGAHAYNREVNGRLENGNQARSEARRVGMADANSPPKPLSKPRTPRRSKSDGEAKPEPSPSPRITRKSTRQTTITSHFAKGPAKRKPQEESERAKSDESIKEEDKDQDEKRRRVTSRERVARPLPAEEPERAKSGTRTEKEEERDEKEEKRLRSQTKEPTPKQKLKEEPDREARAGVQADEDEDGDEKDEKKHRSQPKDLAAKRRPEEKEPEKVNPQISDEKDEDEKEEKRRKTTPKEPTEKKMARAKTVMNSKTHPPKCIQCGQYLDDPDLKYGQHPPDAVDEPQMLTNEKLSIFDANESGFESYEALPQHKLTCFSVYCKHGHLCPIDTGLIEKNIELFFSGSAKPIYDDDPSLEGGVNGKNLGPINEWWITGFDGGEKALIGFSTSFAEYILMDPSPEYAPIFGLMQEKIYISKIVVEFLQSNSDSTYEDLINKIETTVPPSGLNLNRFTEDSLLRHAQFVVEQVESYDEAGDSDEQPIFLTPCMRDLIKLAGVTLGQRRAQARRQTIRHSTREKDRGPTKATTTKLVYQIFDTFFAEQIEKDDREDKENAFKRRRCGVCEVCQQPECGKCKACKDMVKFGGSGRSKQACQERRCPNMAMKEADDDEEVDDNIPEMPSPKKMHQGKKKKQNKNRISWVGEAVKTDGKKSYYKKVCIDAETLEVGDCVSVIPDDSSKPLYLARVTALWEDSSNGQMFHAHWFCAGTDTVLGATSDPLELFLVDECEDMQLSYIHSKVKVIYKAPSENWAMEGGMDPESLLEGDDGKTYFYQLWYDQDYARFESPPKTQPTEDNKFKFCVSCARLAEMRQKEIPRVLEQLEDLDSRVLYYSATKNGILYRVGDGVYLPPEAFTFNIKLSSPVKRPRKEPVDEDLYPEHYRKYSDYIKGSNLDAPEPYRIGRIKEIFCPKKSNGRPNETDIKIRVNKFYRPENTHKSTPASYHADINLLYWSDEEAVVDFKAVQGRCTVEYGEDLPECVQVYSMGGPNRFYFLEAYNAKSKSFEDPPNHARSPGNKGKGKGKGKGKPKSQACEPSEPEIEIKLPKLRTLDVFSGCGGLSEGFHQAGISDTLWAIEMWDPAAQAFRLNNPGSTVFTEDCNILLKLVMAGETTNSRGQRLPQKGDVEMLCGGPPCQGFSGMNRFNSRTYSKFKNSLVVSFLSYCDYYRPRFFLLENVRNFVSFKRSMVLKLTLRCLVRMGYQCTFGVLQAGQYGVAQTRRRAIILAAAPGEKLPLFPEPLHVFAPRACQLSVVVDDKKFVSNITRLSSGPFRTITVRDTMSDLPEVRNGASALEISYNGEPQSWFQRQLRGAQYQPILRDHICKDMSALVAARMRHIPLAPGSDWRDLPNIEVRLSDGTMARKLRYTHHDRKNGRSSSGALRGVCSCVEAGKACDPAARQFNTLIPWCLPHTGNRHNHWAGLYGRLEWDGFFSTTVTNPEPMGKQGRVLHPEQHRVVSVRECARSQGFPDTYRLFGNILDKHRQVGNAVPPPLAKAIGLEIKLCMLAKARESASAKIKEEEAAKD

Row | SMILES | GI50 (OCI-Ly10; [2]) [µM] | GI50 (OCI-AML-2; [3]) [µM] | GI50 (LAL-CUN-2; ALL, read-out: GI50) [µM] | GI50 (CEMO-1; [4]) [µM] | GI50 (CEMO-1; [5]) [µM] | GI50 (MV4-11; [6]) [µM] | GI50 (OCI-Ly3; [7]) [µM] | also measured
1 | COc1cc2c(cc1OCCCN1CCCC1)N=C(N)C21CCC1 [A-366] |  |  |  |  |  |  |  | GI50 (OCI-AML-2; OCI-AML-2, combination study set-up, read-out: GI50): > 50 µM
2 | Nc1ncn([C@@H]2O[C@H](CO)[C@@H](O)[C@H]2O)c(=O)n1 [Azacitidine, azacitidine] | 2.6 | > 10 | 21.2 | 3.96 | 7.7 | 5.56 | 1.93 | IC50 (G9a): > 10 µM
3 | COc1cc2nc(N3CCCN(C)CC3)nc(NC3CCN(Cc4ccccc4)CC3)c2cc1OC [BIX-01294] | > 4 | 6.32 | 5.94 | 2.91 | 2.9 | 11.9 | > 4 | IC50 (human DNMT1 enzyme): > 10 µM
4 | COc1cc2c(OC3CCN(C)CC3)cc(-c3ccc(C)o3)nc2cc1OCCCN1CCCC1 [CM-1021, 6-methoxy-2-(5-methyl-2-furyl)-4-[(1-methyl-4-piperidyl)oxy]-7-(3-pyrrolidin-1-ylpropoxy)quinoline] |  |  |  |  |  |  |  | reduction of primary activity (4-oxyquinoline vs 4-aminoquinoline) (G9a; secondary amine replaced by ether): more than 2.5 log units
5 | Nc1ncn([C@H]2C[C@H](O)[C@@H](CO)O2)c(=O)n1 [Decitabine, decitabine] |  |  |  |  |  |  |  | GI50 (OCI-Ly10): > 4 µM; GI50 (OCI-AML-2; Homo sapiens, OCI-AML2, 48 h): > 10 µM; GI50 (LAL-CUN-2): > 22.4 µM; GI50 (CEMO-1; ALL): 0.49 µM; GI50 (CEMO-1; Homo sapiens, ALL): 0.506 µM; GI50 (MV4-11; MV4-11, 48 h): > 50 µM; GI50 (OCI-Ly3; OCI-Ly3, 48 h): > 4 µM; IC50 (G9a): > 10 µM
6 | C[S+](CC[C@H](N)C(=O)[O-])C[C@H]1O[C@@H](n2cnc3c(N)ncnc32)[C@H](O)[C@@H]1O (stereo partly drawn) [SAM, S-adenosyl-L-methionine] |  |  |  |  |  |  |  | Kd [1]: 15 to 20 µM
7 | COc1cc2c(NC3CCN(C(C)C)CC3)nc(C3CCCCC3)nc2cc1OCCCN1CCCC1 [UNC-0638] | > 4 | 7.33 | 5.18 | 4.73 | 4.7 | 12 | > 4 | 

From paper PMC5458547, “Discovery of first-in-class reversible dual small molecule inhibitors against G9a and DNMTs in hematological malignancies” (Nature Communications, 2017)
